# Literature values, collected in PubChem BioAssay AID1259409 (Chemical Carcinogenesis Research Information System (CCRIS), 2018).
# *1 amine or outer side, *2 acyl side, *3 side chain or, on linkers, in order; H or OH if unused. Where a SMILES comes first, the peptide text is derived from it. [ ]: non-standard residue; d: D form. X1 = O=C(C(N[*:1])c1ccc(OS(=O)(=O)O)cc1)[*:2]
# Test system: rodent chemically induced tumor inhibition, incidence and multiplicity
# Test: CCRIS tumor inhibitor studies
# Settings: Carcinogen: N-NITROSOBIS(2-OXOPROPYL)AMINE, 60599-38-4, Route [Inhibitor]: SUBCUTANEOUS, Species: HAMSTER, Strain/Sex: SYRIAN/MALE, FEMALE, Promoter: NONE USED
smiles,measurement,setting,value
CCC(C)C(NC(=O)C(CCCNC(=N)N)NC(=O)C(Cc1c[nH]cn1)NC(=O)C(CO)NC(=O)C1CCCN1C(=O)C(CC(=O)O)NC(=O)C(CC(C)C)NC(=O)C(CC(N)=O)NC(=O)C(CCC(N)=O)NC(=O)C(CC(C)C)NC(=O)C(CC(N)=O)NC(=O)C(CCCCN)NC(=O)C(NC(=O)C(NC(=O)C(CO)NC(=O)C(CCSC)NC(=O)C(CCCNC(=N)N)NC(=O)CNC(=O)C(CO)NC(=O)C1CCCN1C(=O)C(C)NC(=O)C(N)CCCCN)C(C)CC)C(C)C)C(=O)NC(CO)C(=O)NC(CC(=O)O)C(=O)NC(CCCNC(=N)N)C(=O)NC(CC(=O)O)C(=O)NC(C(=O)NC(CCSC)C(=O)NCC(=O)NC(Cc1c[nH]c2ccccc12)C(=O)NC(CCSC)C(=O)NC(CC(=O)O)C(=O)NC(Cc1ccccc1)C(N)=O)c1ccc(OS(=O)(=O)O)cc1 (stereo not given) (H-KAPSGRMSIVKNLQNLDPSHRISDRD[X1]MGWMDF-NH2; configuration not given here),"tumour outcome (control, treated, inhibition, significance)","Dose [Inhibitor]: 20 IDU/KG BW 6/D FOR 15 WK FIRST DOSE GIVEN 3 HR POST CARCINOGEN DOSE (STUDY DURATION: 46 WK), Target Tissue: Type of Lesion: PANCREAS: DUCTAL/DUCTULAR CARCINOMA, Dose [Carcinogen]: 20 MG/KG BW IN PHYSIOLOGICAL SALINE ONCE","21/40 (52%), 10/37 (27%), 48%, p<0.05"
same,"tumour outcome (control, treated, inhibition, significance)","Dose [Inhibitor]: 20 IDU/KG BW 6/D FOR 15 WK FIRST DOSE GIVEN 3 HR POST CARCINOGEN DOSE (STUDY DURATION: 46 WK), Target Tissue: Type of Lesion: PANCREAS: DUCTULAR ADENOMA, Dose [Carcinogen]: 20 MG/KG BW IN PHYSIOLOGICAL SALINE ONCE","31/40 (78%), 22/37 (59%), 24%, not calculated"
same,"tumour outcome (control, treated, inhibition, significance)","Dose [Inhibitor]: 20 IDU/KG BW 6/D FOR 15 WK FIRST DOSE GIVEN 3 HR POST CARCINOGEN DOSE (STUDY DURATION: 46 WK), Target Tissue: Type of Lesion: PANCREAS: DUCTULAR PROLIFERATION, Dose [Carcinogen]: 20 MG/KG BW IN PHYSIOLOGICAL SALINE ONCE","37/40 (92%), 35/37 (95%), -3%, not calculated"
same,"tumour outcome (control, treated, inhibition, significance)","Dose [Inhibitor]: 20 IDU/KG BW INJECTED AT 30 MIN INTERVALS FOR 6 DOSES, FIRST DOSE GIVEN 3 HR POST CARCINOGEN DOSE (STUDY DURATION: 46 WK, Target Tissue: Type of Lesion: PANCREAS: DUCTAL/DUCTULAR CARCINOMA, Dose [Carcinogen]: 20 MG/KG BW IN PHYSIOLOGICAL SALINE ONCE","21/40 (52%), 17/39 (44%), 15%, not calculated"
same,"tumour outcome (control, treated, inhibition, significance)","Dose [Inhibitor]: 20 IDU/KG BW INJECTED AT 30 MIN INTERVALS FOR 6 DOSES, FIRST DOSE GIVEN 3 HR POST CARCINOGEN DOSE (STUDY DURATION: 46 WK, Target Tissue: Type of Lesion: PANCREAS: DUCTULAR PROLIFERATION, Dose [Carcinogen]: 20 MG/KG BW IN PHYSIOLOGICAL SALINE ONCE","37/40 (92%), 37/39 (95%), -3%, not calculated"
same,"tumour outcome (control, treated, inhibition, significance)","Dose [Inhibitor]: 20 IDU/KG BW INJECTED AT 30 MIN INTERVALS FOR 6 DOSES, FIRST DOSE GIVEN 3 HR POST EACH CARCINOGEN DOSE (STUDY DURATION:, Target Tissue: Type of Lesion: PANCREAS: DUCTAL ADENOMA, Dose [Carcinogen]: 2.5 MG/KG BW IN PHYSIOLOGICAL SALINE 1/WK FOR 20 WK","17/25 (68%), 20/25 (80%), -18%, not calculated"
same,"tumour outcome (control, treated, inhibition, significance)","Dose [Inhibitor]: 20 IDU/KG BW INJECTED AT 30 MIN INTERVALS FOR 6 DOSES, FIRST DOSE GIVEN 3 HR POST EACH CARCINOGEN DOSE (STUDY DURATION:, Target Tissue: Type of Lesion: PANCREAS: DUCTAL PROLIFERATION, Dose [Carcinogen]: 2.5 MG/KG BW IN PHYSIOLOGICAL SALINE 1/WK FOR 20 WK","22/25 (88%), 23/25 (92%), -5%, not calculated"
same,"tumour outcome (control, treated, inhibition, significance)","Dose [Inhibitor]: 20 IDU/KG BW INJECTED AT 30 MIN INTERVALS FOR 6 DOSES, FIRST DOSE GIVEN 3 HR POST EACH CARCINOGEN DOSE (STUDY DURATION:, Target Tissue: Type of Lesion: PANCREAS: DUCTAL/DUCTULAR CARCINOMA, Dose [Carcinogen]: 2.5 MG/KG BW IN PHYSIOLOGICAL SALINE 1/WK FOR 20 WK","15/25 (60%), 23/25 (92%), -53%, not calculated"
same,"tumour outcome (control, treated, inhibition, significance)","Dose [Inhibitor]: 20 IDU/KG BW INJECTED AT 30 MIN INTERVALS FOR 6 DOSES, FIRST DOSE GIVEN SIMULTANEOUSLY WITH CARCINOGEN DOSE (STUDY DURAT, Target Tissue: Type of Lesion: PANCREAS: DUCTAL/DUCTULAR CARCINOMA, Dose [Carcinogen]: 20 MG/KG BW IN PHYSIOLOGICAL SALINE ONCE","21/40 (52%), 5/39 (13%), 75%, p<0.001"
same,"tumour outcome (control, treated, inhibition, significance)","Dose [Inhibitor]: 20 IDU/KG BW INJECTED AT 30 MIN INTERVALS FOR 6 DOSES, FIRST DOSE GIVEN SIMULTANEOUSLY WITH CARCINOGEN DOSE (STUDY DURAT, Target Tissue: Type of Lesion: PANCREAS: DUCTULAR ADENOMA, Dose [Carcinogen]: 20 MG/KG BW IN PHYSIOLOGICAL SALINE ONCE","31/40 (78%), 23/39 (59%), 24%, not calculated"
same,"tumour outcome (control, treated, inhibition, significance)","Dose [Inhibitor]: 20 IDU/KG BW INJECTED AT 30 MIN INTERVALS FOR 6 DOSES, FIRST DOSE GIVEN SIMULTANEOUSLY WITH CARCINOGEN DOSE (STUDY DURAT, Target Tissue: Type of Lesion: PANCREAS: DUCTULAR PROLIFERATION, Dose [Carcinogen]: 20 MG/KG BW IN PHYSIOLOGICAL SALINE ONCE","37/40 (92%), 35/39 (90%), 2%, not calculated"
same,"tumour outcome (control, treated, inhibition, significance)","Dose [Inhibitor]: 20 IDU/KG BW INJECTED AT 30 MIN INTERVALS FOR 6 DOSES, FIRST DOSE GIVEN SIMULTANEOUSLY WITH EACH CARCINOGEN DOSE (STUDY, Target Tissue: Type of Lesion: PANCREAS: DUCTAL ADENOMA, Dose [Carcinogen]: 2.5 MG/KG BW IN PHYSIOLOGICAL SALINE 1/WK FOR 20 WK","17/25 (68%), 21/24 (88%), -29%, not calculated"
same,"tumour outcome (control, treated, inhibition, significance)","Dose [Inhibitor]: 20 IDU/KG BW INJECTED AT 30 MIN INTERVALS FOR 6 DOSES, FIRST DOSE GIVEN SIMULTANEOUSLY WITH EACH CARCINOGEN DOSE (STUDY, Target Tissue: Type of Lesion: PANCREAS: DUCTAL PROLIFERATION, Dose [Carcinogen]: 2.5 MG/KG BW IN PHYSIOLOGICAL SALINE 1/WK FOR 20 WK","22/25 (88%), 22/24 (92%), -5%, not calculated"
same,"tumour outcome (control, treated, inhibition, significance)","Dose [Inhibitor]: 20 IDU/KG BW INJECTED AT 30 MIN INTERVALS FOR 6 DOSES, FIRST DOSE GIVEN SIMULTANEOUSLY WITH EACH CARCINOGEN DOSE (STUDY, Target Tissue: Type of Lesion: PANCREAS: DUCTAL/DUCTULAR CARCINOMA, Dose [Carcinogen]: 2.5 MG/KG BW IN PHYSIOLOGICAL SALINE 1/WK FOR 20 WK","15/25 (60%), 18/24 (75%), -25%, not calculated"
same,"tumour outcome (control, treated, inhibition, significance)","Dose [Inhibitor]: 20 IDU/KG BW INJECTED AT 30 MIN INTERVALS FOR 6 DOSES, LAST DOSE 3 HR PRIOR TO CARCINOGEN DOSE (STUDY DURATION: 46 WK), Target Tissue: Type of Lesion: PANCREAS: DUCTAL/DUCTULAR CARCINOMA, Dose [Carcinogen]: 20 MG/KG BW IN PHYSIOLOGICAL SALINE ONCE","21/40 (52%), 8/37 (22%), 58%, p<0.025"
same,"tumour outcome (control, treated, inhibition, significance)","Dose [Inhibitor]: 20 IDU/KG BW INJECTED AT 30 MIN INTERVALS FOR 6 DOSES, LAST DOSE 3 HR PRIOR TO CARCINOGEN DOSE (STUDY DURATION: 46 WK), Target Tissue: Type of Lesion: PANCREAS: DUCTULAR ADENOMA, Dose [Carcinogen]: 20 MG/KG BW IN PHYSIOLOGICAL SALINE ONCE","31/40 (78%), 19/37 (51%), 35%, not calculated"
same,"tumour outcome (control, treated, inhibition, significance)","Dose [Inhibitor]: 20 IDU/KG BW INJECTED AT 30 MIN INTERVALS FOR 6 DOSES, LAST DOSE 3 HR PRIOR TO CARCINOGEN DOSE (STUDY DURATION: 46 WK), Target Tissue: Type of Lesion: PANCREAS: DUCTULAR PROLIFERATION, Dose [Carcinogen]: 20 MG/KG BW IN PHYSIOLOGICAL SALINE ONCE","37/40 (92%), 33/37 (89%), 3%, not calculated"
same,"tumour outcome (control, treated, inhibition, significance)","Dose [Inhibitor]: 20 IDU/KG BW INJECTED AT 30 MIN INTERVALS FOR 6 DOSES, LAST DOSE GIVEN 3 HR PRIOR TO EACH CARCINOGEN DOSE (STUDY DURATIO, Target Tissue: Type of Lesion: PANCREAS: DUCTAL ADENOMA, Dose [Carcinogen]: 2.5 MG/KG BW IN PHYSIOLOGICAL SALINE 1/WK FOR 20 WK","17/25 (68%), 25/29 (89%), -31%, not calculated"
same,"tumour outcome (control, treated, inhibition, significance)","Dose [Inhibitor]: 20 IDU/KG BW INJECTED AT 30 MIN INTERVALS FOR 6 DOSES, LAST DOSE GIVEN 3 HR PRIOR TO EACH CARCINOGEN DOSE (STUDY DURATIO, Target Tissue: Type of Lesion: PANCREAS: DUCTAL PROLIFERATION, Dose [Carcinogen]: 2.5 MG/KG BW IN PHYSIOLOGICAL SALINE 1/WK FOR 20 WK","22/25 (88%), 24/29 (86%), 2%, not calculated"
same,"tumour outcome (control, treated, inhibition, significance)","Dose [Inhibitor]: 20 IDU/KG BW INJECTED AT 30 MIN INTERVALS FOR 6 DOSES, LAST DOSE GIVEN 3 HR PRIOR TO EACH CARCINOGEN DOSE (STUDY DURATIO, Target Tissue: Type of Lesion: PANCREAS: DUCTAL/DUCTULAR CARCINOMA, Dose [Carcinogen]: 2.5 MG/KG BW IN PHYSIOLOGICAL SALINE 1/WK FOR 20 WK","15/25 (60%), 23/29 (82%), -37%, not calculated"
